{
  "source": "patent US7955790B2",
  "about": "“Skin substitutes with improved barrier function” (Stratatech Corporation, priority 2001, dated 2011)",
  "origin": "cited, not measured here",
  "key": {"in vitro Cultures [1]": {"system": "in vitro Cultures", "details": "for Lipid Composition: substance added to in vitro cultures"}, "in vitro Cultures [2]": {"system": "in vitro Cultures", "details": "substance added to in vitro cultures"}},
  "note": "Like-named read-outs stand apart in the source and are kept apart here.",
  "data": [
    {"compound": "EGF: epidermal growth factor added to in vitro cultures", "values": [
      {"measurement": "Lipid Composition", "setting": "in vitro Cultures [1]", "result": "High triglycerides"}
    ]},
    {"compound": "Estrogen", "values": [
      {"measurement": "Barrier Function", "setting": "in vitro Cultures [2]", "result": "Accelerates"}
    ]},
    {"compound": "O=C1O[C@H]([C@@H](O)CO)C(O)=C1O", "note": "[Vitamin C, ascorbic acid]", "values": [
      {"measurement": "overall SC architecture", "setting": "in vitro Cultures [1]; skin equivalent cultures, electron microscopy", "result": "improved"},
      {"measurement": "Lipid Composition", "setting": "in vitro Cultures [1]", "result": "Major"},
      {"measurement": "Lipid Composition", "setting": "in vitro Cultures [1]; listed as vitamin C", "result": "improved"}
    ]},
    {"compound": "Vitamin D", "values": [
      {"measurement": "Barrier Function", "setting": "in vitro Cultures [2]; listed as vitamin D", "result": "improvements in some studies"}
    ]},
    {"compound": "Vitamin E", "values": [
      {"measurement": "Lipid Composition", "setting": "in vitro Cultures [1]", "result": "No effect"}
    ]}
  ]
}
